Common to all, as to assay type: cell-based
One assay has as its system Escherichia coli. In words: Growth inhibition of Gram-negative bacteria by P18 (optical density at 620 nm). The following applies: for optical density at 620 nm: E. coli suspension, 25 μM P18 solution, mean of 8 mixtures. The procedure: (§1) The growth inhibition by P18 was investigated on Gram-positive and Gram-negative bacteria. Shin et al. 1999 (loc.cit.) had already detected an inhibition on the model organisms Escherichia coli and Bacillus subtilis within a period up to 18 hours.
(§2) The growth medium used for this was LB medium as complex medium for the organisms Escherichia coli, Bacillus subtilis and Brevibacterium epidermidis. The medium comprised 10 g of trypton, 5 g of yeast extract and 10 g of NaCl per liter.
(§3) The growth test was carried out as follows: A shake flask with medium was inoculated with Escherichia coli, Bacillus subtilis or Brevibacterium epidermidis and incubated with shaking overnight at 30° C. and 200 rpm. A 96-well microtiter plate was filled with in each case 100 μl LB medium and inoculated with E.-coli, B.-subtilis or B. epidermidis suspensions of the overnight culture. The bacteria suspension was adjusted at the start of the experiment to an optical density, measured at 620 nm, of about 0.02. The concentrates of the P18 inhibitor solutions were 1 mM in water.
(§4) The growth of the following mixtures was compared by measuring the optical density:
(§5) bacteria suspension without the addition of an inhibitor;
(§6) bacteria suspension and addition of an aqueous P18 solution with a final concentration of 25 μM. The aqueous P18 solution had been freshly prepared.
(§7) The growth was observed over a period of 40 hours by measuring the optical density. […] The growth of Gram-positive bacteria was inhibited initially.

A further assay concerns Bacillus subtilis. The assay can be described thus: Growth inhibition of Gram-positive bacteria by P18 (optical density at 620 nm). The following applies: for optical density at 620 nm: B. subtilis suspension, 25 μM P18 solution, mean of 8 mixtures. How it is done: as §1, §2, §3, §4, §5, §6, §7
Assay [1] concerns Brevibacterium epidermidis. Described as above. The following applies: for optical density at 620 nm: B. epidermidis suspension, 25 μM P18 solution, mean of 8 mixtures. The procedure: as §1, §2, §3, §4, §5, §6, §7
For a further assay, the system named is Malassezia furfur. The assay can be described thus: Kinetics of the effect of P18 on M. furfur in the presence of a shampoo basic formulation, CFU. As to conditions: 2.3-0.23 g/l, 5 min to 24 hours, 10% (v/v) formulation 31-3. How it is done: The effect of the peptide […]; carboxy-terminal end amidated; […] The experiments were carried out as follows: The following shampoo basic formulation was prepared: The components Texapon NSO and Tego Betain L7 were mixed and dissolved. The pH was adjusted to pH 6-7 with NaOH. The effect of P18, ZPT and Climbazole against M. furfur was analyzed as follows: Growth medium: […]-Pityrosporum medium according to DSMZ 40 g/L malt extract 20 g/L ox bile 10 g/L Tween 40 The components were sterilized at 121° C., 1 bar superatmospheric pressure for 20 minutes. 2 g/L of olive oil (sterilized by filtration and, after autoclaving, added to the other components) Since it was a two-phase medium, the complete medium was treated with sonication in order to enlarge the phase boundary. For agar plates, if appropriate, […] of agar agar were added to the medium. The growth test was carried out as follows: […]. furfur and incubated with shaking overnight at 30° C. and 200 rpm. A 96-well microtiter plate was filled with in each case 100 μl of […]. furfur suspension of the overnight culture. […] The peptide P18 was dissolved in water with a concentration of 230 g/l. […] The microtiter plate was incubated with shaking at 30° C.

Ends that are not written are not given here.

Regarding “KWKLFKKIPKFLHLAKKF-NH2 [P18, KWKLFKKIPKFLHLAKKF-NH2]”, the “growth of E. coli (in words)” value with Escherichia coli (25 μM, period of 40 hours) is listed as “effectively inhibited”. In addition, the “optical density at 620 nm” value worked out at 0.09 in the assay on Escherichia coli (incubation time 16 h); 0.06 in the assay on Escherichia coli (incubation time 24 h); 0.07 with Escherichia coli (incubation time 40 h); 0.25 in the assay on Bacillus subtilis (incubation time 16 h); 0.96 in the assay with Bacillus subtilis (incubation time 24 h); 0.67 in the assay with Bacillus subtilis (incubation time 40 h). In addition, the “optical density at 620 nm” value in assay [1] (incubation time 16 h) is recorded as 0.29; in assay [1] (incubation time 24 h), 0.56; in assay [1] (incubation time 40 h), 1.24. In addition, the “growth of B. subtilis (in words)” value with Bacillus subtilis (25 μM, within 40 hours) was “achieved growth densities comparable with the noninhibited culture”. For the same substance, the “growth of B. epidermidis (in words)” value in assay [1] (25 μM, within 40 hours) is “achieved growth densities comparable with the noninhibited culture”. For the same substance, the “effect on M. furfur in the presence of shampoo basic formulation (in words)” value with Malassezia furfur is given as “superior characteristics as compared to Zincpyrithione or Climbazole”.
